Assay results: paper PMC10434032 (Microbiology Spectrum, 2023)
Where two headings read alike, the source gives them in different places.

Tests used:
MPXV [1] = test: microbe, parasite or virus in culture; assay type: cell-based, Mpox virus; settings: for IC50 / IC90: Monkeypox virus, Huh-7, 24 h; for IC50: read-out: Anti-MPXV activity: IC50; for IC90: read-out: Anti-MPXV activity: IC90
in vitro [2] = settings: human
ISG15 and ISG56 = assay type: cell-based, human
MPXV [3] = test: microbe, parasite or virus in culture; assay type: cell-based, Mpox virus; settings: Monkeypox virus; for IC50: Vero C1008, read-out: Anti-MPXV activity: IC50; for IC90: Vero C1008, read-out: Anti-MPXV activity: IC90
MPXV [4] = assay type: cell-based, Mpox virus
MPXV [5] = assay type: cell-based, Mpox virus; remark: listed apart in the source
[6] = test system: MPXV SPL-mpx2A7 strain (clade IIb); assay type: cell-based, Mpox virus
in vitro [7] = settings: African green monkey
[8] = test system: cowpox virus (Brighton Red); assay type: cell-based
MPXV [9] = assay type: cell-based, Mpox virus; remark: listed apart in the source
[10] = test system: MPXV Liberia strain (West African strain, clade IIa); assay type: cell-based, Mpox virus
MPXV [11] = assay type: cell-based, Mpox virus; remark: listed apart in the source
vaccinia virus (LC16m8) = assay type: cell-based
[12] = test system: MPXV Zr-599 (Congo Basin strain, clade I); assay type: cell-based, Mpox virus

Compound	IC50 (MPXV [1]) [nM]	IC90 (MPXV [1]) [nM]	CC50 (in vitro [2]) [nM]	IC50 (MPXV [3]) [nM]	IC90 (MPXV [3]) [nM]	virions observed in cells by electron microscopy (MPXV [4])	MPXV protein expression (immunofluorescence) (MPXV [5])	expression of viral proteins (immunofluorescence) [6]	CC50 (in vitro [7]) [nM]	expression of viral proteins (immunofluorescence) [8]	expression of viral proteins (immunofluorescence) [10]	antiviral activity by treatment period (a whole life cycle 0-24 h, b entry phase 0-2 h, c postentry 2-24 h) (MPXV [11])	expression of viral proteins (immunofluorescence) (vaccinia virus (LC16m8))	further results
CC[C@H](CC#N)OC(=O)N[C@@H](C)c1cccc(NC(=O)Nc2ccc(-c3cnco3)c(OC)c2)c1 [AVN-944]	15	42	> 10000	–	–	–	–	–	–	–	–	–	–	–
COc1c(C)c2c(c(O)c1C/C=C(\C)CCC(=O)O)C(=O)OC2 [MPA, mycophenolic acid]	940	3350	> 10000	260	370	few virions were observed	drastically reduced	clearly reduced	> 100000	clearly reduced	clearly reduced	significantly reduced under conditions a and c but not under condition b	clearly reduced	induction of interferon-stimulated genes ISG15 and ISG56 (ISG15 and ISG56): did not observe significant induction; selectivity index (SI = CC50/IC50) (MPXV [1]): > 10.6; effect of guanosine supplementation on MPA-mediated reduction of viral DNA levels (MPXV [9]): clearly recovered the MPA-mediated reduction of viral DNA levels in a dose-dependent manner
COc1cc(NC(=O)Nc2cccc(CNC(=O)O[C@H]3CCOC3)c2)ccc1-c1cnco1 [Merimepodib, merimepodib]	290	610	> 10000	–	–	–	–	–	–	–	–	–	–	–
COc1c(C)c2c(c(O)c1C/C=C(\C)CCC(=O)OCCN1CCOCC1)C(=O)OC2 [Mycophenolate mofetil, mycophenolate mofetil]	340	1080	> 10000	–	–	–	–	–	–	–	–	–	–	–
NC(=O)c1ncn([C@@H]2O[C@H](CO)[C@@H](O)[C@H]2O)n1 [Ribavirin, ribavirin]	13000	44000	> 100000	–	–	–	–	–	–	–	–	–	–	–
CCCCCCCCCCCCCCCCOCCCOP(=O)(O)CO[C@H](CO)Cn1ccc(N)nc1=O [brincidofovir]	–	–	–	2100	4290	–	–	–	> 10000	–	–	significant antiviral activity in conditions a and c but not in condition b	–	number of surviving cells (fold relative to DMSO-treated control cells) [12]: 103 fold
Nc1ccn([C@@H]2O[C@H](CO)[C@@H](O)C2(F)F)c(=O)n1 [gemcitabine]	–	–	–	24	26	few virions were observed	drastically reduced	clearly reduced	> 100000	clearly reduced	clearly reduced	significantly reduced under conditions a and c but not under condition b	clearly reduced	–
O=C(NN1C(=O)[C@@H]2[C@@H]3C=C[C@@H]([C@H]4C[C@@H]34)[C@@H]2C1=O)c1ccc(C(F)(F)F)cc1 [tecovirimat]	–	–	–	–	–	crescents, immature, and mature virions but not wrapped virions were observed	–	–	–	–	–	–	–	number of surviving cells (fold relative to DMSO-treated control cells) [12]: 223 fold
O=c1[nH]c(=O)n([C@H]2C[C@H](O)[C@@H](CO)O2)cc1C(F)(F)F [trifluridine]	–	–	–	490	890	few virions were observed	drastically reduced	clearly reduced	> 100000	clearly reduced	clearly reduced	significantly reduced under conditions a and c but not under condition b	clearly reduced	–
heparin	–	–	–	–	–	–	–	–	–	–	–	significant antiviral activity under condition b	–	–
